Measurements from PMC5484485, “In vitro and in vivo effects of kisspeptin antagonists p234, p271, p354, and p356 on GPR54 activation” (PLoS ONE, 2017).
pEC50: −log10 of the molar value. Each block holds one compound with its values, some of them ahead of it. Square brackets hold non-standard residues; d marks the D form. Ends that are not written are not given here.

Key:
human GPR54 [1] = molecular target: T1, human GPR54 (Homo sapiens, UniProt Q969F8); assay: Flow cytometric calcium flux assay, response to peptide alone (agonist / intrinsic activity); type: cell-based; parameters: host or cells: rat hematopoietic CHEM1 cells expressing endogenous Galpha15; conditions: 10^-13 to 10^-5 M, n = 3; for pEC50: CHEM1-GPR54 cells in suspension, Fluo-3 AM, flow cytometry; for intrinsic calcium response: any tested concentration
Method: In vitro analyses of the effects of kisspeptin and kisspeptin antagonists, were performed using HT[…] cells (rat hematopoietic CHEM1 cells expressing endogenous Gα15 and, stably expressing the human GPR54 receptor (Millipore BV, the Netherlands), CHEM1-GPR54. Cells were counted and suspended in HBSS+++ at a concentration of 5*10^6 cells/ml. To load the cells with the fluorescent dye ester they were incubated in HBSS+++ adjusted to a concentration of 2 μM Fluo-3 AM (Molecular Probes, Life Technologies, the Netherlands) for 1h at 37°C under agitation in the dark. After incubation, the cells were washed by adding HBSS+++ to a volume of 10 ml followed by centrifugation (5 min, 150 x g) to remove excess of Fluo-3AM. […] Thereafter the tube was removed briefly and 25 μl peptide (see below) was added, after which aspiration and analysis continued. For statistical analyses fluorescent data recorded during the time interval 30-60 seconds after initiation of measurement were used. […] Experiments were performed 3 times. Representative flow cytometry results are depicted in Fig 1. […] We then assessed whether these antagonists could compete with KP10 for its receptor. […] For this purpose 25 μl quantities of the antagonists were added to 200 μl of Fluo-3 AM labelled cells (10^6 cells/ml) and incubated for 15 min. […] Peptides p354 and p356 were tested three times with both human and canine KP10; while peptides p234 and p271 were tested three times with human KP10 and once with canine KP10. […] A multivariate general linear model was set up to analyze differences in calcium response between the different concentrations, with Dunnett's test as a post hoc procedure for the antagonists and Bonferroni's test for the agonists.

CHEM1-GPR54 cells = molecular target: T2, CHEM1-GPR54 cells (Homo sapiens, UniProt Q969F8); assay: Preliminary calcium flux assay with adherent CHEM1-GPR54 cells (unpublished); type: cell-based; conditions: too few repeats for statistics
T2 construct: host or cells: rat hematopoietic CHEM1 cells expressing endogenous Galpha15

human GPR54 [2] = molecular target: T1, human GPR54; conditions: cited from earlier work
Description: The development of kisspeptin antagonists contributed to an improved understanding of the role of kisspeptin in the reproductive system. Roseweir et al. developed several KP10 analogues and tested their effect on inositol phosphate (IP) release in Chinese hamster ovarian (CHO) cells stably expressing the human GPR54. […] The peptide antagonists are KP10 analogs with substitutions at several positions, which should result in good receptor binding affinity but reduced receptor activation. None of the peptides tested in the present study prevented or inhibited the KP10-stimulated calcium response and thus receptor activation.

circulating LH / puberty = conditions: cited from earlier work
Method: The development of kisspeptin antagonists contributed to an improved understanding of the role of kisspeptin in the reproductive system. Roseweir et al. developed several KP10 analogues and tested their effect on inositol phosphate (IP) release in Chinese hamster ovarian (CHO) cells stably expressing the human GPR54. […] The kisspeptin antagonists were administered intravenously in a dose of 50 μg/kg/h, and had no effect on either the basal plasma LH concentration during the continuous administration or on the KP10-induced LH response. These findings are in line with a previous study in female dogs. […] Adult male rats received an intrape ...

human GPR54 [3] = molecular target: T1, human GPR54; assay: Flow cytometric calcium flux assay, KP10-induced response after 15 min pre-incubation with antagonist; type: cell-based; parameters: host or cells: rat hematopoietic CHEM1 cells expressing endogenous Galpha15; conditions: all concentrations 10^-13 to 10^-5 M; 10^-8 M KP10; 15 min pre-incubation; P = 1.00
Method: In vitro analyses of the effects of kisspeptin and kisspeptin antagonists, were performed using HT[…] cells (rat hematopoietic CHEM1 cells expressing endogenous Gα15 and, stably expressing the human GPR54 receptor (Millipore BV, the Netherlands), CHEM1-GPR54. Cells were counted and suspended in HBSS+++ at a concentration of 5*10^6 cells/ml. To load the cells with the fluorescent dye ester they were incubated in HBSS+++ adjusted to a concentration of 2 μM Fluo-3 AM (Molecular Probes, Life Technologies, the Netherlands) for 1h at 37°C under agitation in the dark. After incubation, the cells were washed by adding HBSS+++ to a volume of 10 ml followed by centrifugation (5 min, 150 x g) to remove excess of Fluo-3AM. […] Thereafter the tube was removed briefly and 25 μl peptide (see below) was added, after which aspiration and analysis continued. For statistical analyses fluorescent data recorded during the time interval 30-60 seconds after initiation of measurement were used. […] We then assessed whether these antagonists could compete with KP10 for its receptor. […] For this purpose 25 μl quantities of the antagonists were added to 200 μl of Fluo-3 AM labelled cells (10^6 cells/ml) and incubated for 15 min. […] Peptides p354 and p356 were tested three times with both human and canine KP10; while peptides p234 and p271 were tested three times with human KP10 and once with canine KP10. To analyze the effects of different concentrations of the KP antagonists on the calcium response due to KP10 addition, the differences in fluorescence before and after KP10 were calculated (the calcium response). The calcium response ratios were calculated as the calcium response of the CHEM1-GPR54 cells pre-incubated with different concentrations of KP antagonist and the control (the calcium response of the cells without KP antagonist). These calcium response ratios were log transformed and used for further analysis by univariate analysis of variance, with the Dunnett's test as post hoc test. The calcium response ratios were set as dependent variables and the different concentrations of the antagonists and the two types of KP10 were used as fixed factors. The residuals were normally distributed.

plasma LH concentration = assay: Plasma LH in anestrous Beagle bitches during antagonist infusion and after cKP10 bolus; type: in vivo, dog; conditions: n = 6
Description: Thirteen adult anestrous Beagle bitches were used for this study. Six dogs with a median age of 89 months (range 43–122 months) were used as control group, receiving cKP10 without an antagonist. Eight dogs with a median age of 52 months (range 31–116 months) were used for the antagonist experiments. One dog was first used in the control group and 12 months later for the antagonist experiments. Of the eight dogs used for the antagonist experiments, four received p271, p354, and p356. In two of the eight dogs both p354 and p356 were tested, while in the remaining two dogs only p271 was tested, in order to test every antagonist in 6 dogs. The time between testing of different kisspeptin antagonists was at least 5 days (range 5–15 days) to ensure that there were no peptide residues. Kisspeptin antagonist p234 per se was not tested in vivo because p271 is in fact p234 with a penetratin tag to enhance passage across the blood-brain barrier, as has been described for use with peripheral administration.
Kisspeptin antagonists (50 μg/kg/h) were administered continuously for three hours via a catheter in the cephalic vein. Two hours after the start of the infusion, a single bolus of cKP10 (0.5 μg/kg) was administered intravenously. Blood samples were collected from the jugular vein by venipuncture at -40 min and 0 min before the antagonist infusion, and then every 30 min for two hours. After the administration of cKP10, blood samples were collected at 10, 20, 40, and 60 min (i.e., 130, 140, 160, and 180 min after the start of the antagonist infusion).
As a control, KP stimulation tests (without the administration of a kisspeptin antagonist) were performed in six dogs. Blood samples were collected from the jugular vein by venipuncture at -40 min and 0 min before, and then at 10, 20, 40, and 60 min after administration of cKP10 (0.5 μg/kg). Plasma LH concentrations were measured in all blood samples.
Plasma LH concentrations were measured with a heterologous radioimmunoassay validated for the dog, as described previously. The intra- and interassay CVs for values above 0.5 μg/l were 2.3 and 10.5%, respectively, and the limit of quantitation was 0.3 μg/l.
In both groups of dogs (experimental and control), the basal plasma LH concentration was calculated for each dog as the mean of the values at –40 and 0 min before cKP10 or antagonist administration. All LH values that exceeded the mean of all basal samples plus 3 SD were attributed to pulsatile secretion and were treated as outliers and excluded from statistical analysis. Log transformation of plasma LH concentrations was used because data were not normally distributed. A linear mixed model was used to analyze differences in plasma LH concentrations before and after KP10, with or without a kisspeptin antagonist (group effects: p271, p354, p356, and controls), with Bonferroni correction. P<0.05 was considered significant.

kisspeptin receptor = conditions: ref unpublished data; cited from earlier work
Method: The following peptides were tested for antagonistic properties on the kisspeptin receptor: p234 ((D-Ala)-Asn-Trp-Asn-Gly-Phe-Gly-(D-Trp)-Arg-Phe-NH2), p271 (Arg-Arg-Met-Lys-Trp-Lys-Lys-Tyr-(D-Ala)-Asn-Trp-Asn-Gly-Phe-Gly-(D-Trp)-Arg-Phe-NH2), p354 ((D-Ala)-Tyr-Asn-Phe-Asn-Gly-Phe-Gly-(D-Trp)-Arg-Phe-NH2), and p356 ((D-Ala)-Tyr-Asn-Trp-Asn-Gly-Phe-Gly-(D-Trp)-Lys-Phe-NH2). Peptide 354 and p356 are next generation analogs refining p234.

[4] = antagonist 50 μg/kg/h iv, cKP10 0.5 μg/kg iv

T1 sequence (Q969F8 whole entry): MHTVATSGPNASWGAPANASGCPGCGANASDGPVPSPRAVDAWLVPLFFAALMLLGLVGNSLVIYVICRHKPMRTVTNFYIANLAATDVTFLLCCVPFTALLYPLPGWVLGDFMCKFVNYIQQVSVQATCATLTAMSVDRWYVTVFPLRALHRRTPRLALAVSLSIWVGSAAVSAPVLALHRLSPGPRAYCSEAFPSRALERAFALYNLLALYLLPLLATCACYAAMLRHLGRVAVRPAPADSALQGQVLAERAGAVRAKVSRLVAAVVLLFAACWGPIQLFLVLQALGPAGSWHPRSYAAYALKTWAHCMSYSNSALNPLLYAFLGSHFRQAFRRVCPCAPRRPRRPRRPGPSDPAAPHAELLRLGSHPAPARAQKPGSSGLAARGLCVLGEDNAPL
T2 sequence (Q969F8 whole entry): as above

- pEC50 (human GPR54 [1]): 8.92
Compound: CC(C)C[C@H](NC(=O)CNC(=O)[C@H](Cc1ccccc1)NC(=O)[C@H](CO)NC(=O)[C@H](CC(N)=O)NC(=O)[C@H](Cc1c[nH]c2ccccc12)NC(=O)[C@H](CC(N)=O)NC(=O)[C@@H](N)Cc1ccc(O)cc1)C(=O)N[C@@H](CCCNC(=N)N)C(=O)N[C@@H](Cc1ccccc1)C(N)=O [hKP10, Tyr-Asn-Trp-Asn-Ser-Phe-Gly-Leu-Arg-Phe-NH2, reference compound]

- pEC50 (human GPR54 [1]): 8.10
Compound: YNWNVFGLRY-NH2 [cKP10, Tyr-Asn-Trp-Asn-Val-Phe-Gly-Leu-Arg-Tyr-NH2, reference compound]

- inhibition of KP10-induced calcium response, adherent cells (CHEM1-GPR54 cells): could not be inhibited
- difference in calcium response ratio between controls and antagonist (human GPR54 [3]): not significant
Compound: [dA]NWNGFG[dW]RF-NH2 [p234, kisspeptin antagonist, KP10 analog]
- intrinsic calcium response (human GPR54 [1]): no significant intrinsic calcium response
- inhibitory effect on IP release in vitro, rank among KP10 analogues (human GPR54 [2]; CHO cells stably expressing human GPR54): most potent inhibitory effect
- inhibition of KP10-induced inositol phosphate (IP) production (human GPR54 [2]; CHO cells that express GPR54): 93%
- effect of antagonist alone on basal plasma LH (circulating LH / puberty; intact rats and mice): did not lower the basal plasma LH concentration
- effect on circulating LH when co-administrated with KP10 (circulating LH / puberty; intracerebroventricular): prevented an increase in the circulating LH concentration
- effect on vaginal opening (indicator of puberty) (circulating LH / puberty; rats, intracerebroventricular): delayed vaginal opening

- difference in calcium response ratio between controls and antagonist (human GPR54 [3]): not significant
Compound: [dA]YNFNGFG[dW]RF-NH2 [p354]
- intrinsic calcium response (human GPR54 [1]): no significant intrinsic calcium response
- Median (and range) plasma LH, t = 30 (plasma LH concentration; 30 min of antagonist infusion 50 μg/kg/h iv): 3.7 (2.1–13.1) μg/L
- Median (and range) plasma LH, t = 60 (plasma LH concentration; 60 min of antagonist infusion 50 μg/kg/h iv): 3.2 (2.2–7.2) μg/L
- Median (and range) plasma LH, t = 120 (plasma LH concentration; 120 min of antagonist infusion 50 μg/kg/h iv, before cKP10): 5.2 (2.6–15.7) μg/L
- median maximum increment in plasma LH concentration after cKP10 during antagonist administration (plasma LH concentration; [4]): 8.1 µg/L
- range of maximum increment in plasma LH concentration after cKP10 during antagonist administration (plasma LH concentration; [4]): 5.0 to 12.5 µg/L
- Median (and range) plasma LH, t = 130 / t = 10* (plasma LH concentration; antagonist infusion 50 μg/kg/h iv, 10 min after cKP10 0.5 μg/kg iv): 13.5 (8.4–20.3) μg/L
- Median (and range) plasma LH, t = 140 / t = 20* (plasma LH concentration; antagonist infusion 50 μg/kg/h iv, 20 min after cKP10 0.5 μg/kg iv): 10.0 (5.5–13.0) μg/L
- Median (and range) plasma LH, t = 160 / t = 40* (plasma LH concentration; antagonist infusion 50 μg/kg/h iv, 40 min after cKP10 0.5 μg/kg iv): 6.4 (4.7–9.1) μg/L
- Median (and range) plasma LH, t = 180 / t = 60* (plasma LH concentration; antagonist infusion 50 μg/kg/h iv, 60 min after cKP10 0.5 μg/kg iv): 4.7 (3.7–9.9) μg/L
- Median (and range) plasma LH, Basal (plasma LH concentration; before antagonist infusion (mean of -40 and 0 min per dog)): 4.2 (2.8–6.7) μg/L
- effect on basal plasma LH concentration (plasma LH concentration; continuous iv 50 μg/kg/h, anestrous bitches): did not cause significant alterations
- binding and inhibition of kisspeptin action on inositol generation, potency range (kisspeptin receptor): nanomolar range
